Assay results from patent publication US9109175B2, “Isoprenoid based alternative diesel fuel” (The Regents of the University of California, priority 2010, dated 2015).
Marks after values point to notes of the source that are not given here.

How the values were obtained:
Format in all cases: physicochemical
[1] = Cloud point, ASTM D5773 / D2500
Method: (§1) Fuel property testing of hydrogenated bisabolene was carried out using standard ASTM methods known to and used by those of skill in the art. Table 1 sets forth the various fuel properties analyzed for each of Diesel Fuel Grade #2, bisabolene (mixture of isomers) and hydrogenated bisabolene as well as the ASTM test methods employed to analyze the particular fuel property.

API gravity, ASTM D4052 = conditions: ASTM D4052, 15.56° C.
Method: as §1

[2] = Kinetic viscosity, ASTM D445; conditions: ASTM D445, 40° C.
Method: “Viscosity” refers to a measure of the resistance of a fuel or fuel composition to deform under shear stress. The generally accepted method for measuring the viscosity of a fuel is ASTM Standard D445, which is incorporated herein by reference.
as §1

Density, ASTM D4052 = conditions: ASTM D4052, 15.56° C.
Method: “Density” refers to a measure of mass per volume at a particular temperature. The generally accepted method for measuring the density of a fuel is ASTM Standard D4052, which is incorporated herein by reference.
as §1

Freeze point, ASTM D5972 = test: Freeze point, ASTM D5972
Method: as §1

[3] = Cetane number, ASTM D6890 / D613; conditions: for Cetane number: ASTM D6890
Method: “Cetane number” refers to a measure of how readily a fuel starts to burn (autoignite) under conditions described by ASTM D613 or ASTM D6890. A fuel with a high cetane number starts to burn shortly after it is injected into the cylinder; it has a short ignition delay period. Conversely, a fuel with a low cetane number resists autoignition and has a longer ignition delay period.
as §1

Flash point, ASTM D93 = test: Flash point, ASTM D93
Method: as §1

[4] = Distillation temperature, ASTM D2887 / D86
Method: as §1

Cloud point [1]	API Gravity (@ 15.56° C.) (API gravity, ASTM D4052)	Kinetic viscosity (@ 40° C.) [2]	Density (@ 15.56° C.) (Density, ASTM D4052)	Freeze point (Freeze point, ASTM D5972)	Cetane number [3]	Flash point (Flash point, ASTM D93)	Distillation [4]	Derived Cetane Number (DCN) [3]	Structure (SMILES)
<−78 °C	41	2.91 mm^2/s	819.7 kg/m^3	<−81 °C	41.9	111 °C	267^d ° C.	–	CC(C)CCCC(C)C1CCC(C)CC1 (stereo not shown) [Hydrogenated commercial bisabolene, 1(1,5-dimethylhexyl)-4-methylcyclohexane]
–	–	–	–	–	52.6	–	–	–	CC(C)CCCC(C)C1CCC(C)CC1 (stereo not shown) [Hydrogenated biosynthetic bisabolene, 1(1,5-dimethylhexyl)-4-methylcyclohexane]
–	–	–	–	–	–	–	–	about 42	CC(C)CCCC(C)C1CCC(C)CC1 (stereo not shown) [hydrogenated bisabolene]
